Assay [1] has as its target T1, BAX (Homo sapiens, UniProt Q07812).
T1 construct: with serial dilutions of full-length BAX, BCL-XLΔC, MCL-1ΔNΔC, BFL-1/A1ΔC; made in house; host or cells: Escherichia coli
The experiment in a line: Competitive fluorescence polarization assay, FITC-BIM SAHBA2 from the BAX trigger site. The class given is binding. Conditions: for IC50: FITC-BIM SAHBA2 50 nM, BAX 500 nM, read-out: IC50, competition of FITC-BIM SAHBA2 from BAX. The method, then: (§1) Fluorescence polarization assays (FPA) were performed as previously described (Gavathiotis et al., 2012). Firstly, direct binding isotherms were generated by incubating FITC-BIM SAHBA2 (50 nM) with serial dilutions of full-length BAX, BCL-XLΔC, MCL-1ΔNΔC, BFL-1/A1ΔC and fluorescence polarization was measured at 20 minutes on a F200 PRO microplate reader (TECAN). Subsequently, in competition assays, a serial dilution of small molecule or acetylated BIM SAHBA2 (Ac-BIM SAHB) was combined with FITC-BIM SAHBA2 (50 nM), followed by the addition of recombinant protein at ˜EC75 concentration, as determined by the direct binding assay (BAX: 500 nM; BCL-XLΔC, MCL-1ΔNΔC, BFL-1/A1ΔC: 200 nM).
(§2) A competitive fluorescence polarization assay that evaluates the capacity of compounds to compete a fluorescein-labeled stapled peptide of the BIM BH3 helix, FITC-BIM SAHBA2, from the BAX trigger site, was used to determine the binding potency (Gavathiotis et al., 2008; Gavathiotis et al., 2012).
(In general: Fluorescence polarisation rises when a labelled molecule tumbles more slowly, as on binding a larger partner.)

Assay [2] addresses T2, BCL-XL (Homo sapiens, UniProt Q07817).
T2 construct: BCL-XLΔC, MCL-1ΔNΔC, BFL-1/A1ΔC: 200 nM; made in house; host or cells: Escherichia coli
The assay can be described thus: Competitive fluorescence polarization assay, FITC-BIM SAHBA2 bound to BCL-XL. The class given is binding. Conditions: BTSA1 at 50 μM. The method, then: as §1, §2

Assay [3] relates to MCL-1. The experiment in a line: Competitive fluorescence polarization assay, FITC-BIM SAHBA2 bound to MCL-1. The assay is classed as binding, Human. Conditions: BTSA1 at 50 μM. The method, then: as §1, §2
Assay [4] deals with BFL-1/A1. The assay can be described thus: Competitive fluorescence polarization assay, FITC-BIM SAHBA2 bound to BFL-1/A1. The class given is binding, Human. Conditions: BTSA1 at 50 μM. The method, then: as §1, §2
The subject of assay [5] is THP-1 and OCI-AML3 cells. The assay can be described thus: Viability assay of AML cells treated with venetoclax or BTSA1 alone or in combination. The assay is classed as cell-based, human. The settings on record: BTSA1 at ~EC10 dose, 24 hrs. The source says: Moreover, the synergistic effect of these two drugs is observed within hours, consistent with their kinetics of mitochondrial apoptosis activation.

Assay [6] has as its system OCI-AML3 leukemia cells. The experiment in a line: Synergistic cytotoxicity with BCL-2 inhibitors in OCI-AML3 leukemia cells. Conditions: for IC50: Homo sapiens, OCI-AML-3, 24 h, 24 h treatment; for synergy with ABT-199 (venetoclax) / synergy with ABT-263 (navitoclax): non-cytotoxic doses, 24 h. The assay is classed as cell-based, human.
Description: Viability assays were performed in at least triplicate and the data normalized to vehicle-treated control wells. IC50 values were determined by nonlinear regression analysis using Prism software (Graphpad).
In assay [7] the test system is anti-apoptotic BCL-2 family proteins (BCL-2, BCL-XL, MCL-1). The experiment in a line: Pull down assay with biotinylated BTSA1, anti-apoptotic BCL-2 family proteins. The class given is binding, human. The method, then:
OCI-AML3, MEFs and HPB-ALL cytosolic and mitochondrial lysates were generated by Dounce Homogenization. Cells were lysed by Dounce homogenizer in lysis buffer (LB) containing 10 mM Tris, pH 7.5, 1 mM EGTA, 200 mM sucrose plus Complete Protease Inhibitors. The cell lysates were centrifuged at 700×g for 10 min to remove unbroken cells and nuclei. The supernatants were centrifuged at 12000× g for 10 min at 4° C. and the resulting pellet was collected as the mitochondrial fraction and supernatant as the cytosolic fraction. The mitochondrial fraction was resuspended in LB+1% CHAPS to solubilize proteins. […] Biotin capture was achieved by incubation with high capacity streptavidin agarose (50 μL 50% slurry/reaction—Pierce) for 1 hour at room temperature. The streptavidin beads were washed (3×) at room temperature with 1×PBS. Cellular BAX bound to the biotinylated-BTSA1 was eluted by boiling for 20 minutes in LDS buffer and then subjected to BAX (2772S, Cell Signaling), BCL-2 (BD Biosciences Cat. 610539), BCL-XL (Cell Signaling Cat. 2764) and MCL-1 (Cell Signaling Cat. 4572) western blot analysis.

Assay [8] has as its target T1, BAX. The assay can be described thus: Direct fluorescence polarization binding of fluorescein-labeled BTSA1 to BAX. The settings on record: fluorescein-labeled compound.

Positions of bridges follow the written chain, without caps; N, C: chain ends. Non-standard residues stand in square brackets, D forms with d. Residues, ends and D or L forms follow the SMILES beside them. S5 = C=CCCC[C@](C)(N)C(=O)O

T1 sequence (Q07812 whole entry): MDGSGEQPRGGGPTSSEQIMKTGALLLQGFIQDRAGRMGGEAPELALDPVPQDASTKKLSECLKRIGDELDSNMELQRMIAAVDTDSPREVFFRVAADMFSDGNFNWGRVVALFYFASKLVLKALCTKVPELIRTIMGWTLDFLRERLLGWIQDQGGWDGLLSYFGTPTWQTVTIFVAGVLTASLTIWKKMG
T2 sequence (Q07817 1-212 limits assumed): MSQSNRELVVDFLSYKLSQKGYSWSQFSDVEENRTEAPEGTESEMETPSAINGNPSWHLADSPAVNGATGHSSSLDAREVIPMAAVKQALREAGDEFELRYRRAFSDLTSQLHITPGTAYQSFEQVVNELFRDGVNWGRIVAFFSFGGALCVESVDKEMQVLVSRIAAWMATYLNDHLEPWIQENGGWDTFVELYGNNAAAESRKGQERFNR

As for `CC[C@H](C)[C@H](NC(=O)[C@H](Cc1c[nH]c2ccccc12)NC(=O)[C@@H](NC(=O)[C@H](CCC(=O)O)NC(C)=O)[C@@H](C)CC)C(=O)N[C@@H](C)C(=O)N[C@@H](CCC(N)=O)C(=O)N[C@@H](CCC(=O)O)C(=O)N[C@@H](CC(C)C)C(=O)N[C@@H](CCCNC(=N)N)C(=O)N[C@@]1(C)CCCC=CCCC[C@@](C)(C(=O)N[C@@H](Cc2ccccc2)C(=O)N[C@@H](CC(N)=O)C(=O)N[C@@H](C)C(=O)N[C@@H](Cc2ccc(O)cc2)C(=O)N[C@@H](Cc2ccc(O)cc2)C(=O)N[C@@H](C)C(N)=O)NC(=O)[C@H](CC(=O)O)NC(=O)CNC(=O)[C@H]([C@@H](C)CC)NC1=O` [BIM SAHBA2] (Ac-EIWIAQELR[S5]IGD[S5]FNAYYA-NH2; staple 10-14), in assay [1], the IC50 came to 0.28 µM. For the same compound, the “capacity to compete FITC-BIM SAHBA2 from BCL-XL” value in assay [2] is given as “effectively competed”. For the same compound, in assay [3], the “capacity to compete FITC-BIM SAHBA2 from MCL-1” value is “effectively competed”. For the same compound, the “capacity to compete FITC-BIM SAHBA2 from BFL-1/A1” value in assay [4] is recorded as “effectively competed”.

`CC1(C)CCC(CN2CCN(c3ccc(C(=O)NS(=O)(=O)c4ccc(NCC5CCOCC5)c([N+](=O)[O-])c4)c(Oc4cnc5[nH]ccc5c4)c3)CC2)=C(c2ccc(Cl)cc2)C1` [ABT-199, 4-(4-{[2-(4-Chlorophenyl)-4,4-dimethyl-1-cyclohexen-1-yl]methyl}-1-piperazinyl)-N-({3-nitro-4-[(tetrahydro-2H-pyran-4-ylmethyl)amino]phenyl}sulfonyl)-2-(1H-pyrrolo[2,3-b]pyridin-5-yloxy)benzamide]: the “EC50 of venetoclax in combination with BTSA1” value in assay [5] is “low nM concentration”. Besides, the IC50 came out at 3.91 µM in assay [6] (BAX activator concentration 0.625 μM), 4.8 µM in assay [6] (BAX activator concentration 1.25 μM) and 3.65 µM in assay [6] (BAX activator concentration […]).

As to `O=C(CCCC[C@H]1SCC2NC(=O)NC21)NCCCOCCOCCOCCCNC(=O)c1ccc(-c2csc(N3N=C(c4ccccc4)C(=NNc4nccs4)C3=O)n2)cc1` (stereo partly drawn) [biotinylated BTSA1, N-(15-oxo-19-((4R)-2-oxohexahydro-1H-thieno[3,4-d]imidazol-4-yl)-4,7,10-trioxa-14-azanonadecyl)-4-(2-(5-oxo-3-phenyl-4-(2-(thiazol-2-yl)hydrazono)-4,5-dihydro-1Hpyrazol-1-yl)thiazol-4-yl)benzamide], in assay [1], the “reduction in binding capacity to BAX relative to BTSA1” value is “ten-fold” and the IC50 worked out at 2 µM. The “pull down of anti-apoptotic BCL-2 family proteins” value in assay [7] is reported as “failed to pull down”.

Turning to `CC1=NN(c2nc(-c3ccccc3)cs2)C(=O)C1=NNc1nccs1` [BTSA2], in assay [1], the “reduction in binding capacity to BAX relative to BTSA1” value is around 10 fold and the IC50 turned out to be 3.7 µM.

Regarding `O=C1/C(=N\Nc2nccs2)C(c2ccccc2)=NN1c1nc(-c2ccc(F)cc2)cs1` [GAV2-008], in assay [6], the “synergy with ABT-199 (venetoclax)” value is “significant synergistic cytotoxicity” and the “synergy with ABT-263 (navitoclax)” value is listed as “significant synergistic cytotoxicity”.

With `O=C(NCCCOCCOCCOCCCNC(=S)Nc1ccc2c(c1)C(=O)OC21c2ccc(O)cc2Oc2cc(O)ccc21)c1ccc(-c2csc(N3N=C(c4ccccc4)C(=NNc4nccs4)C3=O)n2)cc1` [fluorescein-labeled BTSA1, N-(1-((3′,6′-dihydroxy-3-oxo-3H-spiro[isobenzofuran-1,9′-xanthen]-5-yl)amino)-1-thioxo-6,9,12-trioxa-2-azapentadecan-15-yl)-4-(2-(5-oxo-3-phenyl-4-(2-(thiazol-2-yl)hydrazineylidene)-4,5-dihydro-1H-pyrazol-1-yl)thiazol-4-yl)-benzamide], the response in assay [8] was half-maximal at 0.144 µM (EC50).

Regarding `Cc1nc(N/N=C2\C(=O)N(c3nc(-c4ccccc4)cs3)N=C2c2ccccc2)sc1C` [GAV2-006], in assay [6], the “synergy with ABT-199 (venetoclax)” value is given as “significant synergistic cytotoxicity” and the “synergy with ABT-263 (navitoclax)” value is “significant synergistic cytotoxicity”.

With `COc1ccc(C2=NN(c3nc(-c4ccccc4)cs3)C(=O)/C2=N\Nc2nccs2)cc1` [GAV2-010], in assay [6], the “synergy with ABT-199 (venetoclax)” value is recorded as “significant synergistic cytotoxicity”.

For orientation: IC50 means the concentration needed to halve the response being measured. What is called EC50 is the concentration that produces a half-maximal response. A lower EC50 goes with an effect from little substance.

The record behind these values is patent US11382898B2, “BAX activators and uses thereof in cancer therapy” (Albert Einstein College of Medicine, priority 2017, dated 2022).
